The subject of assay [1] is 3T3-L1 cell differentiated into adipocyte. As to the kind of experiment: Lipolysis effects test (glycerol secretion by differentiated adipocytes). The following applies: 24 hours, absorbency at 540 nm.
In assay [2] the test system is healthy adult women with local obesity or cellulite inside of a thigh. The conditions noted are these: O/W emulsion coated on one leg for one month, control emulsion on the other leg; 5 women. As to the method:
In order to examine slimming effects, clinical tests were conducted on 5 healthy adult women of ages 18˜46 with local obesity or cellulite inside of a thigh (Method of testing primary irritant substances 38(187): pp1500–1541).
The fusion peptide prepared in Example 1 was prepared in the form of an O/W emulsion and used in the test. A control (O/W emulsion without sample) was coated on one leg, and an O/W emulsion comprising the compound of Chemical Formula 1 of the present invention was coated on the other leg, for one month, and then the thickness of the lipid layer was quantified.

From patent US7060673B2, “Fusion peptide of human parathyroid hormone derived peptide and tat peptide, preparation thereof, and skin slimming cosmetic composition comprising the same” (LG Household and Health Care Ltd., priority 2001, dated 2006) come the findings set out here.

In the case of `CC(C)NCC(O)c1ccc(O)c(O)c1` (stereo not shown) [Isoproterenol, isoproterenol, reference compound], the “Lipolysis increase rate (%)” value worked out at 12.5% in assay [1] (concentration 10^−5 M), 39.0% in assay [1] (concentration 10^−6 M), 34.5% in assay [1] (concentration 10^−7 M) and 17.3% in assay [1] (concentration 10^−8 M).
As for KKKKKKKKKGKH, the “Lipolysis increase rate (%)” value in assay [1] (concentration 10^−5 M) worked out at 43.4%; in assay [1] (concentration 10^−5 M, listed as compound represented by the Chemical Formula 1), 43%; in assay [1] (concentration 10^−6 M), 10.3%; in assay [1] (concentration 10^−7 M), 17.4%; in assay [1] (concentration 10^−8 M), 8.6%. In addition, the lipid layer decrease in assay [2] is on record as 18%.
